Literature values, collected in patent US20040235753A1, “Oxytocin agonists” (priority 2001, published 2004).
Like-named read-outs stand apart in the source and are kept apart here.

Tested on: erectile response
Conditions: male rats

CC[C@H](C)[C@@H]1NC(=O)[C@H](Cc2ccc(O)cc2)NC(=O)[C@@H](N)CSSC[C@@H](C(=O)N2CCC[C@H]2C(=O)N[C@@H](CC(C)C)C(=O)NCC(N)=O)NC(=O)[C@H](CC(N)=O)NC(=O)[C@H](CCC(N)=O)NC1=O [OT, oxytocin]
erectogenic activity (i.c.v.): erectogenic | erectogenic activity (i.v., doses required up to two orders of magnitude greater than i.c.v.): erectogenic activity
